Experimental data published in publication PMC6208908, “Field template-based design and biological evaluation of new sphingosine kinase 1 inhibitors” (Breast Cancer Research and Treatment, 2018).
Marks after values point to notes of the source that are not given here. Each block holds one compound with its values, some of them ahead of it.

What was measured:
[1] = molecular target: recombinant SK1 (Homo sapiens, UniProt Q9NYA1); experiment: SK1 activity assay, cell-free (recombinant SK1 extract, radiolabelling); assay type: biochemical; settings: 1 µM compound, recombinant SK1 extract in excess, 1 µM ATP, 1 µM sphingosine, 1 h
recombinant SK1, sequence (Q9NYA1 whole entry): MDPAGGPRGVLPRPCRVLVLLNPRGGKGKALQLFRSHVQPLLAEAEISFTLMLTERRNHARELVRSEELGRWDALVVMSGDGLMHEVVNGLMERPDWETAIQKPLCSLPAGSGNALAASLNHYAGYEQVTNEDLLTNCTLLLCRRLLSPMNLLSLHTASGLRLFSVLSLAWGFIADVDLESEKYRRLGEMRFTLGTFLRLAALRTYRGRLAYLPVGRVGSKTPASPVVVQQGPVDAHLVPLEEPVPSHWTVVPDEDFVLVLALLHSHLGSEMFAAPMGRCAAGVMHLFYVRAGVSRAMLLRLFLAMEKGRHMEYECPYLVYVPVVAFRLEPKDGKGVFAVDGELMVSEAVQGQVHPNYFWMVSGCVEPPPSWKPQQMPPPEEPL
Experimental: (§1) SK assay was performed using radiolabeling as previously described, in conditions favouring SK1 or SK2 activity as required.
The synthesised compounds were then screened for SK1 inhibition. Compounds SK-A to SK-F and SKI-II (commercial inhibitor of SK used as positive control with reported IC50 0.5 µM [14]) at 1 µM were incubated in the presence of recombinant SK1 extract (in excess), 1 µM of ATP, and exogenous 1 µM sphingosine for 1 h followed by measurement of SK1 activity.
(§2) Fig. 2 Inhibition of sphingosine kinase 1 in cell-free extract and in vitro. a 1 µM of compounds SK-A to SK-F and SKI-II (commercial inhibitor of SK used as a positive control) were incubated in the presence of recombinant SK1 extract (in excess), 1 µM of ATP, and 1 µM exogenous sphingosine for 1 h. b MDA-MB-231 cells were incubated with 1 µM of compounds SK-A to SK-F and SKI-II for 6 h. SK1 activity was measured as described in materials and methods. Columns, means of three independent experiments normalised to vehicle; bars, SEM. (ns, non-significant; *p < 0.05; **p < 0.01)
SK1 activity was determined in the presence of triton X-100 and SK2 activity was measured in the presence of high salt concentrations, conditions that favour SK1 and SK2, respectively. […] Km for SK1 was 6.97 ± 1.20 µM, Vmax 98 ± 4 µM/min/mg protein and Ki for SK-F 0.46 ± 0.1 µM. […] Some SK inhibitors such as SKI-II were previously shown to induce proteasomal degradation of SK1 [48, 49].

[2] = molecular target: T1, endogenous SK1 in MDA-MB-231 cells (Homo sapiens, UniProt Q9NYA1); experiment: SK1 activity in lysates of treated MDA-MB-231 cells; assay type: cell-based; settings: 1 µM, 6 h
T1 construct: We treated MDA-MB-231 cells with 1 µM of compounds SK-A – SK-F and SKI-II as the positive control for 6 h; endogenous in cells; host or cells: MDA-MB-231
T1 sequence (Q9NYA1 whole entry): as above
Experimental: After incubation, cells were washed with ice-cold phosphate-buffered saline (PBS) and harvested.
as §1, §2
Reportedly, among human tumour cell lines, the breast cancer cell line MDA-MB-231 expresses high levels of SK activity. We treated MDA-MB-231 cells with 1 µM of compounds SK-A – SK-F and SKI-II as the positive control for 6 h and analysed SK1 activity in the cell lysates using SK1 activity assay.

[3] = system: SK1 mRNA; experiment: SK1 mRNA expression by qRT-PCR in MDA-MB-231 cells; assay type: cell-based, human; settings: 1, 2, 5 and 10 µM, 24 h
Experimental: Isolation of total RNA from MDA-MB-231 cells was performed using the RNeasy Mini kit (Qiagen, Valencia, CA, USA) as per manufacturer’s instructions. RNA quantity and purity were measured using a NanoDrop ND-1000 Spectrophotometer (Thermo Fisher Scientific, Loughborough, UK). Reverse transcription was performed using precision nanoScript™ reverse transcription kit (PrimerDesign Ltd, Southampton, UK). qRT-PCR was done as already described. Ct values were exported and analysed using qbase software (Biogazelle NV, Zwijnaarde, Belgium).
Fig. 3 Effect of compounds SK-A to SK-F on SK1 mRNA levels. MDA-MB-231 cells were incubated with 1, 2, 5 and 10 µM of compounds SK-A to SK-F for 24 h. SK1 mRNA expression was measured by qRT-PCR. Columns, means of three independent experiments normalised to control; bars, SEM. (*p < 0.05; **p < 0.01)

[4] = system: SK1 protein; experiment: SK1 protein level (Figure S9); assay type: cell-based
[5] = system: MDA-MB-231 cells; experiment: MTT cell viability / proliferation assay; assay type: cell-based, human; settings: 1, 2, 5 and 10 µM, up to 120 h
Experimental: Cellular viability was measured using the 3-(4,5-dimethylthiazol-2-yl)-2,5-diphenyltetrazolium bromide (MTT; 5 mg/ml) colorimetric assay as already described.
Fig. 4 Effect of compounds SK-A to SK-F on breast cancer cell viability. MDA-MB-231 cells were incubated with 1, 2, 5 and 10 µM of compounds SK-A to SK-F for up to 120 h. Cell proliferation was measured using MTT assay. Columns, means of three independent experiments normalised to control; bars, SEM. (*p < 0.05; **p < 0.01; ^§p < 0.001). IC50 levels for SK-F for 72, 96 and 120 h were 7, 4.5 and 3 µM, respectively

[6] = system: SK; parameters: method as in PMID 14522923; settings: commercial inhibitor of SK, positive control; read-out: reported IC50; cited from earlier work
[7] = system: 4T1 breast cancer allografts; experiment: 4T1 breast cancer allograft, tumour volume; assay type: in vivo, BALB/c nude mice; settings: 5 mg/kg each drug i.p. twice a week for 2 weeks; control 468 mm^3
Experimental: Breast cancer allografts were established in 6–8-week-old BALB/c nude mice by injection of 10^6 4T1 cells into their mammary pad. Two weeks after implantation, mice were randomised into treatment groups (n = 6/group) and treated twice a week for 2 weeks with intraperitoneal injections of dimethyl sulfoxide (DMSO), 5 mg/kg DTX, 5 mg/kg SK-F, 5 mg/kg DTX + 5 mg/kg SK-F. One day after the last treatment, all mice were euthanized and blood was collected. Tumour long and short radii were measured using calipers and tumour volume (v) was calculated using the formula v = 4/3 πab^2 (a – long radius, b – short radius). Mice and individual organs were weighed and primary tumours were then processed for analysis of SK1 activity as described above. Full blood count and liver function test analysis was done in the Hammersmith hospital biochemical lab. […]
(§3) Fig. 5 Effect of compound SK-F on breast tumour growth and SK1 activity. […] Two weeks after implantation, mice were randomised into treatment groups (n = 6/group) and treated twice a week for 2 weeks with intraperitoneal injections of: DMSO, 5 mg/kg DTX, 5 mg/kg SK-F, 5 mg/kg DTX + 5 mg/kg SK-F. a Tumour volume in the different treatment groups of 4T1 breast cancer implanted in mouse mammary fat pad. b SK1 activity in tumours was measured using radiolabelling. […]

[8] = molecular target: T2, tumour SK1 (Mus musculus, UniProt Q8CI15); experiment: SK1 activity in 4T1 allograft tumours; assay type: in vivo, BALB/c nude mice; settings: 5 mg/kg each drug i.p. twice a week for 2 weeks
T2 construct: primary tumours were then processed for analysis of SK1 activity as described above; from tissue; host or cells: 4T1 breast tumour allografts from BALB/c nude mice
T2 sequence (Q8CI15 whole entry): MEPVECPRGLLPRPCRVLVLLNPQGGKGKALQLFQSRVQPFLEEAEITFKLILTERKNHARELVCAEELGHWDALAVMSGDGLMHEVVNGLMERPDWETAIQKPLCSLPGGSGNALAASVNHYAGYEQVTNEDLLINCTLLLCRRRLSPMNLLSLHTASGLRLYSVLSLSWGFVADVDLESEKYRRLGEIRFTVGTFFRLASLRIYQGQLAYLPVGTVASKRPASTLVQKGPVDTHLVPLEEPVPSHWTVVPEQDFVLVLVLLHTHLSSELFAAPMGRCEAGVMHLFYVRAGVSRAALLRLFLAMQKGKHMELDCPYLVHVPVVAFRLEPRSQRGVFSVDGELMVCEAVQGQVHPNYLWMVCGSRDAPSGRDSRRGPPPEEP
Experimental: (§4) Breast cancer allografts were established in 6–8-week-old BALB/c nude mice by injection of 10^6 4T1 cells into their mammary pad. Two weeks after implantation, mice were randomised into treatment groups (n = 6/group) and treated twice a week for 2 weeks with intraperitoneal injections of dimethyl sulfoxide (DMSO), 5 mg/kg DTX, 5 mg/kg SK-F, 5 mg/kg DTX + 5 mg/kg SK-F. One day after the last treatment, all mice were euthanized and blood was collected. Tumour long and short radii were measured using calipers and tumour volume (v) was calculated using the formula v = 4/3 πab^2 (a – long radius, b – short radius). Mice and individual organs were weighed and primary tumours were then processed for analysis of SK1 activity as described above. Full blood count and liver function test analysis was done in the Hammersmith hospital biochemical lab.
as §3

[9] = Whole-body toxicity: body and organ weights, full blood count; assay type: in vivo, BALB/c nude mice; settings: 5 mg/kg each drug i.p. twice a week for 2 weeks, 4T1 tumour-bearing mice
Experimental: as §4
Tumour-bearing mice were divided into four groups (n = 6) and injected with: DMSO, 5 mg/kg DTX, 5 mg/kg SK-F, 5 mg/kg DTX + 5 mg/kg SK-F. Two weeks after the tumour cells inoculation, we began intraperitoneal injections of drug preparations and continued these twice a week for two weeks. Based on our previous studies, we have chosen relatively smaller doses of SK-F and DTX in order to investigate their combined effect and potential chemosensitisation of breast tumours to taxane therapies. In the control group, tumours grew progressively and rapidly (Fig. 5a). […] Five mg/kg DTX has induced a significant reduction in tumour volume to 281 mm^3. The biggest reduction in tumour volume to 159 mm^3 was observed when DTX was combined with SK-F (Fig. 5a). […] We have further investigated the effects of the used treatments on mouse whole-body toxicity. DTX has reduced body and liver weight, while SK-F had no significant effect (Table 1). DTX has induced significant anaemia and leukopenia, while the effects of SK-F were very moderate. In all cases, the effects of combined therapy were similar to DTX alone (Table 1). Liver function test was performed as a surrogate marker for chemotherapy-induced liver damage (Fig. 6). […] The combination therapy had similar toxicity profile to DTX alone, while exerting higher antitumour efficacy (Fig. 5a).

[10] = Liver function tests in treated mice; assay type: in vivo, BALB/c nude mice; settings: 5 mg/kg i.p. twice a week for 2 weeks
Experimental: as §4
Fig. 6 Liver function tests of mice treated with SK-F and docetaxel (DTX). Breast cancer allografts were established in BALB/c nude mice by injection of 4T1 cells into their mammary pad. Two weeks after implantation, mice were randomised into treatment groups (n = 6/group) and treated twice a week for two weeks with intraperitoneal injections of: DMSO, 5 mg/kg DTX, 5 mg/kg SK-F, 5 mg/kg DTX + 5 mg/kg SK-F. a Alanine transaminases (ALT). b Bilirubin. c Aspartate transaminase (AST). d Albumin. e Alkaline phosphatase (ALP). f Total protein. Columns, mean of n = 6 animals normalised to control; bars, SEM. (*p < 0.05; **p < 0.01)

inhibition of SK1 activity in cell-free settings [1]: statistically significant inhibition | SK1 activity in cells versus vehicle [2]: significantly decreased
SMILES: CCCCCCCCc1ccc(NC(=O)c2cccc(Cl)c2)cc1 [SK-E]

inhibition of SK1 activity in cell-free settings [1]: ineffective | SK1 activity in cells versus vehicle [2]: significantly decreased
SMILES: CCCCCCCCc1ccc(NC(=O)C2CCNCC2)cc1 [SK-C]
effect on SK1 mRNA expression [3]: reduction in SK1 mRNA | decrease in SK1 protein [4]: 75% | effect on MDA-MB-231 cancer cell proliferation [5]: highest effect

SMILES: Oc1ccc(Nc2nc(-c3ccc(Cl)cc3)cs2)cc1 [SKI-II, reference compound]
effect on SK1 mRNA expression [3]: minimal effect | effect on SK1 protein [4]: significant decrease | IC50 [6]: 500 nM

tumour SK1 activity [8]: no effect | alkaline phosphatase (ALP) [10]: milder increase
SMILES: CC(=O)O[C@@]12CO[C@@H]1C[C@H](O)[C@@]1(C)C(=O)[C@H](O)C3=C(C)[C@@H](OC(=O)[C@H](O)[C@@H](NC(=O)OC(C)(C)C)c4ccccc4)C[C@@](O)([C@@H](OC(=O)c4ccccc4)[C@H]21)C3(C)C [DTX, docetaxel, reference compound]
tumour volume at the end of the study [7]: 281 mm^3 | Hb [9]: 65 ± 7 % of control ± SEM | WCC [9]: 54 ± 4 % of control ± SEM | Weight of Body [9]: 86 ± 7 % of control ± SEM | Weight of Kidney [9]: 97 ± 5.9^a % of control ± SEM | Weight of Liver [9]: 85.3 ± 11.4^a % of control ± SEM | Weight of Lungs [9]: 99.4 ± 4.a % of control ± SEM | Weight of Spleen [9]: 91.3 ± 15.4^a % of control ± SEM | alanine transaminases (ALT) [10]: significant increases | aspartate transaminase (AST) [10]: significant increases
